Inconclusive results and toxic doses are left out. Cut-off read from the data, not from the text of the source: active = T/C of 150% or more; inactive = T/C below 125%.
System: L1210 leukemia ip in BDF1 mice, survival T/C
Experiment: NCI In Vivo Anticancer Drug Screen. Data for tumor model L1210 Leukemia (intraperitoneal) in B6D2F1 (BDF1) mice
Settings: endpoint: mean survival time, higher = longer survival
Procedure, shortened: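 Mice bearing the transplanted tumor received compound or vehicle. Survival of the treated group was divided by that of the vehicle-treated control group to give the ratio.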

[1] = dose: 100.0 mg/kg/injection, schedule: Q01DX009 (ip), vehicle: Klucel (hydroxypropylcellulose) (HPC)

Measured: T/C

C=CC(=O)N(CCN1CCOCC1)C(C)C
inactive: dose: 100.0 mg/kg/injection, schedule: Q04DX002 (ip), vehicle: saline 94 % of control | dose: 200.0 mg/kg/injection, schedule: Q04DX002 (ip), vehicle: saline 97 % of control | dose: 400.0 mg/kg/injection, schedule: Q04DX002 (ip), vehicle: saline 94 % of control

CC(=O)c1cc(Cl)ccc1O
inactive: dose: 100.0 mg/kg/injection, schedule: Q01DX001 (ip), vehicle: Klucel (hydroxypropylcellulose) (HPC) 104 % of control | dose: 100.0 mg/kg/injection, schedule: Q04DX002 (ip), vehicle: Klucel (hydroxypropylcellulose) (HPC) 100 % of control | dose: 200.0 mg/kg/injection, schedule: Q01DX001 (ip), vehicle: Klucel (hydroxypropylcellulose) (HPC) 106 % of control | dose: 200.0 mg/kg/injection, schedule: Q04DX002 (ip), vehicle: Klucel (hydroxypropylcellulose) (HPC) 96 % of control | dose: 400.0 mg/kg/injection, schedule: Q01DX001 (ip), vehicle: Klucel (hydroxypropylcellulose) (HPC) 97 % of control | dose: 400.0 mg/kg/injection, schedule: Q04DX002 (ip), vehicle: Klucel (hydroxypropylcellulose) (HPC) 89 % of control

O=C(O)CCC(=O)CC[N+](=O)[O-]
inactive: dose: 75.0 mg/kg/injection, schedule: Q01DX001 (ip), vehicle: saline 94 % of control | dose: 150.0 mg/kg/injection, schedule: Q01DX001 (ip), vehicle: saline 97 % of control

O=C(Nc1cccc(C(F)(F)F)c1)N(C1CCCCC1)C1CCCCC1
inactive: [1] 92 % of control | dose: 200.0 mg/kg/injection, schedule: Q01DX009 (ip), vehicle: Klucel (hydroxypropylcellulose) (HPC) 87 % of control | dose: 400.0 mg/kg/injection, schedule: Q01DX009 (ip), vehicle: Klucel (hydroxypropylcellulose) (HPC) 87 % of control

O=C(Nc1cccc(C2=NCCCN2)c1)c1ccc(C(=O)Nc2cccc(C3=NCCCN3)c2)cc1
inactive: dose: 0.1 mg/kg/injection, schedule: Q01DX Z (ip), vehicle: saline 95 % of control | dose: 0.2 mg/kg/injection, schedule: Q01DX Z (ip), vehicle: saline 100 % of control | dose: 0.3 mg/kg/injection, schedule: Q01DX Z (ip), vehicle: saline 97 % of control | dose: 0.5 mg/kg/injection, schedule: Q01DX Z (ip), vehicle: saline 97 % of control

CCC(=O)OCN1C(=O)C2C3CCC(O3)C2C1=O (stereo unspecified)
inactive: dose: 87.5 mg/kg/injection, schedule: Q01DX009 (ip), vehicle: other 98 % of control | dose: 175.0 mg/kg/injection, schedule: Q01DX009 (ip), vehicle: other 111 % of control

CCCCCCCCCC[n+]1cccc(C#N)c1
inactive: dose: 5.0 mg/kg/injection, schedule: Q01DX009 (ip), vehicle: saline 109 % of control | dose: 10.0 mg/kg/injection, schedule: Q01DX001 (ip), vehicle: saline 100 % of control | dose: 10.0 mg/kg/injection, schedule: Q01DX009 (ip), vehicle: saline 98 % of control | dose: 10.0 mg/kg/injection, schedule: Q04DX003 (ip), vehicle: saline 98 % of control | dose: 20.0 mg/kg/injection, schedule: Q01DX001 (ip), vehicle: saline 95 % of control | dose: 20.0 mg/kg/injection, schedule: Q01DX009 (ip), vehicle: saline 93 % of control | dose: 20.0 mg/kg/injection, schedule: Q04DX003 (ip), vehicle: saline 93 % of control | dose: 40.0 mg/kg/injection, schedule: Q01DX001 (ip), vehicle: saline 93 % of control | dose: 40.0 mg/kg/injection, schedule: Q04DX003 (ip), vehicle: saline 94 % of control

COC(=O)NC1CC(O)C(CO)C1 (stereo unspecified)
inactive: dose: 50.0 mg/kg/injection, schedule: Q01DX009 (ip), vehicle: Klucel (hydroxypropylcellulose) (HPC) 94 % of control | [1] 97 % of control

Reference: PubChem BioAssay AID248 (DTP/NCI, 2004)
